The test system of the assay is B6C3F1 mice, B16 melanoma ip, median survival T/C. Briefly: NCI In Vivo Anticancer Drug Screen. Data for tumor model B16 Melanoma (intraperitoneal) in B6C3F1 mice. To be noted: endpoint: median survival time, higher = longer survival. An outline of the steps:
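Readout: survival or tumor size in treated mice relative to vehicle controls (T/C). Model uses transplantable tumors grown in mice.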

Setting [1] is: dose: 4.0 mg/kg/injection, schedule: Q01DX009 (ip), vehicle: saline with Tween-80.
[2] abbreviates: dose: 16.0 mg/kg/injection, schedule: Q01DX009 (ip), vehicle: saline with Tween-80.
Setting [3] is: dose: 6.25 mg/kg/injection, schedule: Q01DX009 (ip), vehicle: saline.
Setting [4] is: dose: 12.5 mg/kg/injection, schedule: Q01DX009 (ip), vehicle: saline.
[5] abbreviates: dose: 50.0 mg/kg/injection, schedule: Q01DX009 (ip), vehicle: saline.
Where [6] appears, read: dose: 100.0 mg/kg/injection, schedule: Q01DX009 (ip), vehicle: saline.
[7] abbreviates: dose: 200.0 mg/kg/injection, schedule: Q01DX009 (ip), vehicle: saline.
Where [8] appears, read: dose: 25.0 mg/kg/injection, schedule: Q01DX009 (ip), vehicle: Klucel (hydroxypropylcellulose) (HPC).
The mark [9] stands for this setting: dose: 50.0 mg/kg/injection, schedule: Q01DX009 (ip), vehicle: Klucel (hydroxypropylcellulose) (HPC).
Setting [10] is: dose: 100.0 mg/kg/injection, schedule: Q01DX009 (ip), vehicle: Klucel (hydroxypropylcellulose) (HPC).
The mark [11] stands for this setting: dose: 200.0 mg/kg/injection, schedule: Q01DX009 (ip), vehicle: Klucel (hydroxypropylcellulose) (HPC).
The mark [12] stands for this setting: dose: 12.5 mg/kg/injection, schedule: Q01DX009 (ip), vehicle: Klucel (hydroxypropylcellulose) (HPC).
[13] abbreviates: dose: 50.0 mg/kg/injection, schedule: Q01DX009 (ip), vehicle: saline with Tween-80.
Setting [14] is: dose: 100.0 mg/kg/injection, schedule: Q01DX009 (ip), vehicle: saline with Tween-80.
The mark [15] stands for this setting: dose: 25.0 mg/kg/injection, schedule: Q01DX009 (ip), vehicle: saline.
Where [16] appears, read: dose: 400.0 mg/kg/injection, schedule: Q01DX009 (ip), vehicle: Klucel (hydroxypropylcellulose) (HPC).

In PubChem BioAssay AID200 (DTP/NCI, 2004) one finds T/C data, which are given here for 16 compounds.

SMILES strings stand for the structures. Several values for one entry are separate records, joined by “and”; a condition that tells them apart may be missing. Equal values may be shown once. Toxic doses and inconclusive results are not listed.

Take `C=C1[C@@H](O)[C@]2(O)OC[C@@]34[C@H]1[C@@H](OC(=O)C(C)CC)C(=O)O[C@@H]3C[C@H]1C(C)=CC(=O)[C@@H](O)[C@]1(C)[C@@H]24` (stereo partly specified): the T/C by setting is: (dose: 1.0 mg/kg/injection, schedule: Q01DX009 (ip), vehicle: saline with Tween-80) 175 % of control; (dose: 2.0 mg/kg/injection, schedule: Q01DX009 (ip), vehicle: saline with Tween-80) 165 % of control; under setting [1], 175 % of control; (dose: 8.0 mg/kg/injection, schedule: Q01DX009 (ip), vehicle: saline with Tween-80) 165 % of control; under setting [2], 180 % of control.

For `COC1CC(C)C(OC)c2cc(O)cc(c2O)NC(=O)/C(C)=C/C=C\C(C)C(OC(N)=O)/C(C)=C\C(C)C1OC` (stereo unspecified), the T/C runs as follows: (dose: 0.31 mg/kg/injection, schedule: Q01DX005 (iv), vehicle: other) 94 % of control; (dose: 0.31 mg/kg/injection, schedule: Q01DX009 (ip), vehicle: other) 109 % of control; (dose: 0.31 mg/kg/injection, schedule: Q01DX009 (ip), vehicle: saline with Tween-80) 98 % of control; (dose: 0.62 mg/kg/injection, schedule: Q01DX005 (iv), vehicle: other) 101 % of control; (dose: 0.62 mg/kg/injection, schedule: Q01DX009 (ip), vehicle: saline with Tween-80) 112 % of control; (dose: 1.25 mg/kg/injection, schedule: Q01DX005 (iv), vehicle: other) 93 % of control. In addition, the T/C by setting is: (dose: 1.25 mg/kg/injection, schedule: Q01DX009 (ip), vehicle: other) 117 % of control; (dose: 2.5 mg/kg/injection, schedule: Q01DX005 (iv), vehicle: other) 102 % of control; (dose: 2.5 mg/kg/injection, schedule: Q01DX009 (ip), vehicle: other) 119 % of control; (dose: 5.0 mg/kg/injection, schedule: Q01DX005 (iv), vehicle: other) 95 % of control; (dose: 5.0 mg/kg/injection, schedule: Q01DX009 (ip), vehicle: saline with Tween-80) 171 % of control; (dose: 10.0 mg/kg/injection, schedule: Q01DX005 (iv), vehicle: other) 109 % of control. The T/C (dose: 10.0 mg/kg/injection, schedule: Q01DX009 (ip), vehicle: other) was 114 % of control.

Regarding `CCC(C)n1ncc2c(N(C)C)ncnc21` (stereo unspecified), the T/C runs as follows: (dose: 3.12 mg/kg/injection, schedule: Q01DX009 (ip), vehicle: saline) 98 % of control; under setting [3], 95 % of control; under setting [4], 95 % of control.

Take `O=C(O)CNC(=O)c1ccccc1`: the T/C (dose: 40.0 mg/kg/injection, schedule: Q01DX009 (ip), vehicle: saline with Tween-80) was 96 % of control and the T/C (dose: 80.0 mg/kg/injection, schedule: Q01DX009 (ip), vehicle: saline with Tween-80) is 95 % of control.

On to `CC(N)C(=O)NC(CC(N)=O)C(=O)O` (stereo unspecified), for which the T/C runs as follows: under setting [5], 103 % of control; under setting [6], 94 % of control; under setting [7], 97 % of control.

Regarding `Oc1c(Cl)cc(Cl)cc1C=NCCSc1ccc(Cl)cc1`, the T/C by setting is: under setting [8], 98 % of control and 102 % of control; under setting [9], 92 % of control and 102 % of control; under setting [10], 113 % of control and 93 % of control; under setting [11], 92 % of control and 103 % of control.

With `CC(=O)OC(OC(C)=O)c1ccc([N+](=O)[O-])c([N+](=O)[O-])c1`, the T/C is 102 % of control under setting [12], 99 % of control under setting [8] and 102 % of control under setting [9].

Take `CC(C)(C)OC(=O)NC(Cc1cn(Cc2ccccc2)cn1)C(=O)O` (stereo unspecified): the T/C was 102 % of control under setting [13]; 97 % of control under setting [14]; 100 % of control (dose: 200.0 mg/kg/injection, schedule: Q01DX009 (ip), vehicle: saline with Tween-80).

For the compound `CCC(C(=O)O)C(=O)O.[NH-]CC1CCCC[N-]1.[Pt+2]`, the T/C was 108 % of control under setting [3]; 102 % of control under setting [4]; 113 % of control (dose: 12.5 mg/kg/injection, schedule: Q01DX009 (ip), vehicle: suspension in saline); 101 % of control under setting [15]; 115 % of control (dose: 25.0 mg/kg/injection, schedule: Q01DX009 (ip), vehicle: suspension in saline); 123 % of control (dose: 50.0 mg/kg/injection, schedule: Q01DX009 (ip), vehicle: suspension in saline).

On to `O=NN(CCF)C(=O)NC1CCCCC1`, for which the T/C reads like this: (dose: 3.12 mg/kg/injection, schedule: Q01DX009 (ip), vehicle: Klucel (hydroxypropylcellulose) (HPC)) 116 % of control; (dose: 6.25 mg/kg/injection, schedule: Q01DX009 (ip), vehicle: Klucel (hydroxypropylcellulose) (HPC)) 166 % of control; (dose: 12.0 mg/kg/injection, schedule: Q01DX001 (ip), vehicle: Klucel (hydroxypropylcellulose) (HPC)) 121 % of control; under setting [12], 333 % of control; (dose: 25.0 mg/kg/injection, schedule: Q01DX001 (ip), vehicle: Klucel (hydroxypropylcellulose) (HPC)) 162 % of control; (dose: 100.0 mg/kg/injection, schedule: Q01DX001 (ip), vehicle: Klucel (hydroxypropylcellulose) (HPC)) 216 % of control.

Turning to `C1OC1CN1CCN(CC2CO2)CC1` (stereo unspecified), the T/C is, setting by setting: under setting [1], 103 % of control; under setting [2], 110 % of control.

`CC(C)(C)OC(=O)N(C=O)C(Cc1c[nH]c2ccccc12)C(=O)O` (stereo unspecified): the T/C under setting [10] is 94 % of control, the T/C under setting [11] is 88 % of control and the T/C under setting [16] was 86 % of control.

On to `CCc1cccc(CC)c1-n1c(C)ccc1-c1ccccc1`, for which the T/C runs as follows: under setting [13], 100 % of control; under setting [14], 107 % of control.

As for `O=C(NC(Cc1ccc(I)cc1)C(=O)O)c1cccc(Br)c1` (stereo unspecified), the T/C reads like this: under setting [8], 100 % of control; under setting [9], 104 % of control; under setting [10], 105 % of control; under setting [11], 103 % of control; under setting [16], 89 % of control.

In the case of `Cc1ccc(C(=N)c2ccccc2Cc2cccc3ccccc23)c(C)c1`, the T/C reads like this: (dose: 0.75 mg/kg/injection, schedule: Q01DX009 (ip), vehicle: saline with Tween-80) 107 % of control; (dose: 1.5 mg/kg/injection, schedule: Q01DX009 (ip), vehicle: saline with Tween-80) 112 % of control; (dose: 3.0 mg/kg/injection, schedule: Q01DX009 (ip), vehicle: saline with Tween-80) 97 % of control; (dose: 6.0 mg/kg/injection, schedule: Q01DX009 (ip), vehicle: saline with Tween-80) 98 % of control.

Regarding `N#CC(OC1OC(COC2OC(CO)C(O)C(O)C2O)C(O)C(O)C1O)c1ccccc1` (stereo unspecified), the T/C runs as follows: under setting [15], 101 % of control; (dose: 25.0 mg/kg/injection, schedule: Q01DX009 (ip), vehicle: water) 100 % of control; under setting [5], 104 % of control; (dose: 50.0 mg/kg/injection, schedule: Q01DX009 (ip), vehicle: water) 102 % of control; under setting [6], 105 % of control; (dose: 100.0 mg/kg/injection, schedule: Q01DX009 (ip), vehicle: water) 102 % of control. The T/C is 106 % of control under setting [7]; 117 % of control (dose: 200.0 mg/kg/injection, schedule: Q01DX009 (ip), vehicle: water); 101 % of control (dose: 400.0 mg/kg/injection, schedule: Q01DX009 (ip), vehicle: saline); 106 % of control (dose: 400.0 mg/kg/injection, schedule: Q01DX009 (ip), vehicle: water); 100 % of control (dose: 800.0 mg/kg/injection, schedule: Q01DX009 (ip), vehicle: saline); 106 % of control (dose: 800.0 mg/kg/injection, schedule: Q01DX009 (ip), vehicle: water).
